Experiment: Single ascending dose study, plasma pharmacokinetics of Compound (1) and GHB
Assay type: in vivo, human
Conditions: fasted
Method: The plasma concentrations of Compound (1) and GHB in plasma in healthy human subjects were measured using liquid chromatography tandem mass-spectroscopy and evaluated using PHOENIX™ WINNONLIN® version 8.1 (Pharsight Corporation, USA) and MICROSOFT® EXCEL® (Microsoft Corporation, USA).
All randomized subjects who received Compound (1), with available pharmacokinetic (PK) data and without relevant deviations interfering with the PK evaluations, were included. Subjects who received only placebo were excluded from the PK population. In addition, the PK population was used for the summaries and analyses of all PK data.
A randomized, double-blind, single-center, single ascending dose study was undertaken to evaluate the safety, tolerability, and pharmacokinetics of Compound (1) and GHB in healthy subjects.
Compound (1) was administered to randomized healthy subjects at doses from 0.1 g to 7.25 g as an aqueous solution of Compound (1) in water. The subjects fasted for at least 10 hours overnight with clear liquids allowed prior to dosing and the subjects were fasted for 4 hours after dosing.
Plasma samples were obtained at various times following oral administration and the plasma concentrations of Compound (1) and GHB were measured.

[1] = Cohort 1 (0.10 g) single oral dose
[2] = Cohort 2 (0.50 g) single oral dose
[3] = Cohort 3 (1.50 g) single oral dose
[4] = Cohort 4 (3.00 g) single oral dose
[5] = Cohort 5 (4.50 g) single oral dose
[6] = Cohort 6 (6.00 g) single oral dose

Q: Which results are given for `CC(C)[C@H](N)C(=O)OCCCC(=O)O` [Compound (1), 4-((L-valyl)oxy)butanoic acid]?
A: Compound (1) CL/F, Max [1]: 554 L/h; Compound (1) CL/F, Mean [1]: 420 L/h; Compound (1) CL/F, Median [1]: 408 L/h; Compound (1) CL/F, Min [1]: 316 L/h; Compound (1) plasma AUC0-inf, Max [1]: 316 ng·h/mL; Compound (1) plasma AUC0-inf, Min [1]: 180 ng·h/mL; Compound (1) plasma AUC0-tlast, Max [1]: 315 ng·h/mL; Compound (1) plasma AUC0-tlast, Min [1]: 180 ng·h/mL; Compound (1) plasma Cmax, Max [1]: 669 ng/mL; Compound (1) plasma Cmax, Min [1]: 265 ng/mL; Compound (1) plasma t1/2, Max [1]: 0.92 h; Compound (1) plasma t1/2, Min [1]: 0.48 h; Compound (1) CL/F, Max [2]: 500 L/h; Compound (1) CL/F, Mean [2]: 400 L/h; Compound (1) CL/F, Median [2]: 396 L/h; Compound (1) CL/F, Min [2]: 309 L/h; Compound (1) plasma AUC0-inf, Max [2]: 1620 ng·h/mL; Compound (1) plasma AUC0-inf, Min [2]: 1000 ng·h/mL; Compound (1) plasma AUC0-tlast, Max [2]: 1610 ng·h/mL; Compound (1) plasma AUC0-tlast, Min [2]: 998 ng·h/mL; Compound (1) plasma Cmax, Max [2]: 2470 ng/mL; Compound (1) plasma Cmax, Min [2]: 1160 ng/mL; Compound (1) plasma Tmax, Max [2]: 1.50 h; Compound (1) plasma t1/2, Max [2]: 1.33 h; Compound (1) plasma t1/2, Min [2]: 0.71 h; Compound (1) CL/F, Max [3]: 959 L/h; Compound (1) CL/F, Mean [3]: 673 L/h; Compound (1) CL/F, Median [3]: 553 L/h; Compound (1) CL/F, Min [3]: 468 L/h; Compound (1) plasma AUC0-inf, Max [3]: 3210 ng·h/mL; Compound (1) plasma AUC0-inf, Min [3]: 1500 ng·h/mL; Compound (1) plasma AUC0-tlast, Max [3]: 4040 ng·h/mL; Compound (1) plasma AUC0-tlast, Min [3]: 1500 ng·h/mL; Compound (1) plasma Cmax, Max [3]: 5530 ng/mL; Compound (1) plasma Cmax, Min [3]: 2100 ng/mL; Compound (1) plasma Tmax, Max [3]: 1.50 h; Compound (1) plasma t1/2, Max [3]: 1.11 h; Compound (1) plasma t1/2, Min [3]: 0.97 h; Compound (1) CL/F, Max [4]: 545 L/h; Compound (1) CL/F, Mean [4]: 413 L/h; Compound (1) CL/F, Median [4]: 408 L/h; Compound (1) CL/F, Min [4]: 318 L/h; Compound (1) plasma AUC0-inf, Max [4]: 9430 ng·h/mL; Compound (1) plasma AUC0-inf, Min [4]: 5500 ng·h/mL; Compound (1) plasma AUC0-tlast, Max [4]: 9430 ng·h/mL; Compound (1) plasma AUC0-tlast, Min [4]: 5500 ng·h/mL; Compound (1) plasma Cmax, Max [4]: 15200 ng/mL; Compound (1) plasma Cmax, Min [4]: 7440 ng/mL; Compound (1) plasma t1/2, Max [4]: 1.54 h; Compound (1) plasma t1/2, Min [4]: 0.78 h; Compound (1) CL/F, Max [5]: 586 L/h; Compound (1) CL/F, Mean [5]: 416 L/h; Compound (1) CL/F, Median [5]: 389 L/h; Compound (1) CL/F, Min [5]: 353 L/h; Compound (1) plasma AUC0-inf, Max [5]: 12700 ng·h/mL; Compound (1) plasma AUC0-inf, Min [5]: 7670 ng·h/mL; Compound (1) plasma AUC0-tlast, Max [5]: 12700 ng·h/mL; Compound (1) plasma AUC0-tlast, Min [5]: 7660 ng·h/mL; Compound (1) plasma Cmax, Max [5]: 16700 ng/mL; Compound (1) plasma Cmax, Min [5]: 6790 ng/mL; Compound (1) plasma t1/2, Max [5]: 1.50 h; Compound (1) plasma t1/2, Min [5]: 0.83 h; Compound (1) CL/F, Max [6]: 423 L/h; Compound (1) CL/F, Mean [6]: 340 L/h; Compound (1) CL/F, Median [6]: 334 L/h; Compound (1) CL/F, Min [6]: 232 L/h; Compound (1) plasma AUC0-inf, Max [6]: 25800 ng·h/mL; Compound (1) plasma AUC0-inf, Min [6]: 14200 ng·h/mL; Compound (1) plasma AUC0-tlast, Max [6]: 25800 ng·h/mL; Compound (1) plasma AUC0-tlast, Min [6]: 14200 ng·h/mL; Compound (1) plasma Cmax, Max [6]: 22900 ng/mL; Compound (1) plasma Cmax, Min [6]: 13200 ng/mL; Compound (1) plasma t1/2, Max [6]: 1.64 h; Compound (1) plasma t1/2, Min [6]: 0.79 h

From patent US11896573B2, “Pharmaceutical compositions and pharmacokinetics of a gamma-hydroxybutyric acid derivative” (priority 2020, dated 2024)
